In one data set the test system is T lymphocytes. The data set can be described thus: Cytokine induction by OKT-3 and/or PHA plus Ciprofloxacin, cells incubated in flasks. The format is cell-based, human. From the text: The buffy coat white cells of human blood from multiple HIV-negative hepatitis virus-negative donors is collected. In an alternative embodiment, animals are the cell source for veterinary uses. The cells from the donors are pooled and layered on ficoll hypaque gradients (Pharmacia) to yield lymphocytes free of neutrophils and erythrocytes. Alternative methods could be used that would result in the same starting lymphocyte population as are known in the art.
The lymphocytes are washed and distributed in X vivo-10 media (Whittaker Bioproducts) to surface activated cell culture flasks for selection of cell subsets (MICROCELLECTOR™ T-25 Cell Culture Flasks), which contain immobilized stimulants, i.e., mitogens like PHA. In one set of experiments, X vivo-15 and X vivo-20 media were used as indicated. The immobilization process for the stimulants is as described by the manufacturer for immobilizing various substances for panning procedures, i.e., separating cells, in the flasks. Alternatively, the lymphocytes are exposed to stimulants e.g., PHA for 2-4 hours then washed three times.
The cells are incubated for 24 to 48 hours in X vivo-10 media with 80 μg/ml Ciprofloxacin (Miles Lab) at 37° in a CO2/air incubator. […] Generally, the HSA is used at 0.1 to 0.5% (weight by volume). Following incubation, the supernatants are poured off and collected. Human serum albumin (HSA) may be added to stabilize further the interleukins if HSA-free media is used for generations. The supernatants are store at 4° C. to −70°.

The subject of the next data set is thymocyte and splenocyte. The note with it: in vivo thymosin α1 5 μg/animal/day, NCM 50 units IL-2 equivalence; FIGS. 21, 22; cited from earlier work.
The test system of data set [1] is endogenous suppression of T cells caused by cancer lesions. The data set can be described thus: NSAID codelivered for contrasuppression in the NCM regimen. The note with it: for effectiveness as NSAID for blocking endogenous suppression of T cells: codelivery with low dose cyclophosphamide and NCM. The format is in vivo, human. From the text:
It is preferable to block endogenous suppression of T cells, such as caused by various cancer lesions. Blocking is effected by the codelivery of low dose cyclophosphamide and a nonsteroidal anti-inflammatory drug (NSAID). The NSAID of choice is indomethacin. […] Side effects of NSAIDs are to be aggressively treated with […] and a prostaglandin E analog. Zinc and multivitamins are useful agents to help restore T cell immunity. Treatment with contrasuppression and zinc without the NCM is ineffective.

The values below come from patent US7731945B2, “Immunotherapy for reversing immune suppression” (Immuno-Rx, Inc., priority 2001, dated 2010).

Consider “OKT-3: monoclonal antibody (Ortho) which induces T lymphocytes to proliferate and produce interleukins”, for which, in the data set with T lymphocytes, the GM-CSF came out at 75 pg/mL, the IFN-Y came to 11280 pg/mL, the IL-1-β worked out at 1125 pg/mL and the IL-6 amounted to 1980 pg/mL. For the same compound, the TNF-α with T lymphocytes stood at 2500 pg/mL.
With Thymosin α1, the “thymocyte and splenocyte in vitro responses to media, rIL-1, rIL-2 and NCM” value in the data set with thymocyte and splenocyte is reported as “increase many of the responses”.
`COc1ccc2c(c1)c(CC(=O)O)c(C)n2C(=O)c1ccc(Cl)cc1` [indomethacin]: the toxicity entry in data set [1] (as NSAID of the regimen) is recorded as “arguably the most toxic”. Besides, the “effectiveness as NSAID for blocking endogenous suppression of T cells” value (shortened to “effectiveness as NSAID”) in data set [1] is on record as “most effective NSAID”.
For `CC(C)Cc1ccc(C(C)C(=O)O)cc1` (stereo not shown) [Ibuprofen], the histological responses result in data set [1] (as NSAID of the regimen) is given as “characteristic of a TH2 rather than TH1 mediated response”. For the same compound, the “effectiveness as NSAID” value in data set [1] is on record as “effective”.
As for `Cc1ccc(-c2cc(C(F)(F)F)nn2-c2ccc(S(N)(=O)=O)cc2)cc1` [Celebrex®], the “effectiveness as NSAID” value in data set [1] was “less effective”.
With `CS(=O)(=O)c1ccc(C2=C(c3ccccc3)C(=O)OC2)cc1` [Vioxx®], the toxicity entry in data set [1] (as NSAID of the regimen) was “causing gastritis in many patients”. The “effectiveness as NSAID” value in data set [1] was “less effective”.
